# Assay results: patent US20210161997A1, “TREATING DISEASES VIA TARGETED MODULATION OF GENE SIGNALING NETWORKS” (Camp4 Therapeutics Corporation, priority 2018, published 2021)
# Structures can show the parent of a compound that is named as a salt.
# B1: BMP4: TGF-beta activator (protein, UniProt P12644 293-408, looked up)
# Bone morphogenetic protein 4: SPKHHSQRARKKNKNCRRHSLYVDFSDVGWNDWIVAPPGYQAFYCHGDCPFPLADHLNSTNHAIVQTLVNSVNSSIPKACCVPTELSAISMLYLDEYDKVVLKNYQEMVVEGCGCR
# B2: GDF2 (BMP9): TGF-beta activator (protein, UniProt Q9UK05 320-429, looked up)
# Growth/differentiation factor …: SAGAGSHCQKTSLRVNFEDIGWDSWIIAPKEYEAYECKGGCFFPLADDVTPTKHAIVQTLVHLKFPTKVGKACCVPTKLSPISVLYKDDMGVPTLKYHYEGMSVAECGCR
# What was measured:
# Format in all cases: cell-based
# [1] = system: JAG1; assay: RNA-seq of JAG1 expression in compound-treated primary human hepatocytes; conditions: for JAG1 Fold Change (Log2): primary human hepatocytes; for Significant modulation of JAG1 (in words): summary of Table 6
# Method: (§1) Human hepatocytes were obtained from two donors from Massachusetts General Hospital, namely MGH54 and MGH63, and one donor from Lonza, namely HUM4111B. Cryopreserved hepatocytes were cultured in plating media for 16 hours, transferred to maintenance media for 4 hours. Cultured on serum-free media for 2 hours, then a compound was added. The hepatocytes were maintained on the serum-free media for 16 hours prior to gene expression analysis. Primary human hepatocytes were stored in the vapor phase of a liquid nitrogen freezer (about -130° C.). Human hepatocytes cultured as described above were plated in 24-well format, adding 375,000 cells per well in a volume of 500 ul plating medium. Four hours before treatment, cells were washed with PBS and the medium was changed to either: fresh maintenance medium (complete) or modified maintenance medium. Compound stocks were prepared at 1000× final concentration and added in a 2-step dilution to the medium to reduce risk of a compound precipitating out of solution when added to the cells, and to ensure reasonable pipetting volumes. […] The plate was mixed by carefully swirling and after all wells were treated and returned to the incubator overnight. If desired, separate plates/wells were treated with vehicle-only controls and/or positive controls. If using multi-well plates, controls were included on each plate. After about 18 hours, cells were harvested for further analysis, e.g., ChIP-seq, RNA-seq, ATAC-seq, etc. This protocol is a modified version of the following protocols: MagMAX mirVana Total RNA Isolation Kit User Guide (Applied Biosystems #MAN0011131 Rev B.0), NEBNext Poly(A) mRNA Magnetic Isolation Module ([…]), and NEBNext Ultra Directional RNA Library Prep Kit for Illumina ([…]) (New England Biosystems #E74901). […] Two hundred μl of Lysis Binding Mix was used per well of the multiwell plate containing adherent cells (usually a 24-well plate). For mRNA isolation and library prep, the NEBNext Poly(A) mRNA Magnetic Isolation Module and Directional Prep kit was used. RNA isolated from cells above was quantified, and prepared in […] of each sample in 50 μl of nuclease-free water. This protocol may be run in microfuge tubes or in a 96-well plate. […] Genomic alignments were converted to transcriptome alignments based on reference transcript annotations from the Human GENCODE Gene Set release 24 (Harrow et al., Genome Res. […] Standard QC were applied (read integrity, mapping statistics, library complexity, fragment bias) to remove unsatisfactory samples. Differential gene expression was computed using the negative binomial model implemented by DESeq2 version 1.16.1 (Love et al., Genome Biol. (2014) 15(12):550). […] RNA-seq signals were also normalized by read depth and visualized using the UCSC browser. To identify small molecules that modulate target gene expression, primary human hepatocytes were prepared as a monoculture, and at least one small molecule compound was applied to the cells. RNA-seq was performed to determine the effects of the compounds on the expression of the target genes in hepatocytes. Fold change was calculated by dividing the level of expression in the cell system that had been perturbed by the level of expression in an unperturbed system.
# [2] = system: NOTCH2; assay: RNA-seq of NOTCH2 expression in compound-treated primary human hepatocytes; conditions: for NOTCH2 Fold Change (Log2): primary human hepatocytes
# Method: as §1
# [3] = system: ANGPTL3; assay: RNA-seq of ANGPTL3 expression in compound-treated primary human hepatocytes; conditions: additional compounds (Table 13), linear fold change
# Method: (§2) Human hepatocytes were obtained from two donors from Massachusetts General Hospital, namely MGH54 and MGH63, and one donor from Lonza, namely HUM4111B. Cryopreserved hepatocytes were cultured in plating media for 16 hours, transferred to maintenance media for 4 hours. Cultured on serum-free media for 2 hours, then a compound was added. The hepatocytes were maintained on the serum-free media for 16 hours prior to gene expression analysis. Primary human hepatocytes were stored in the vapor phase of a liquid nitrogen freezer (about −130° C.).
# (§3) Human hepatocytes cultured as described above were plated in 24-well format, adding 375,000 cells per well in a volume of 500 ul plating medium. Four hours before treatment, cells were washed with PBS and the medium was changed to either: fresh maintenance medium (complete) or modified maintenance medium.
# (§4) Compound stocks were prepared at 1000× final concentration and added in a 2-step dilution to the medium to reduce risk of a compound precipitating out of solution when added to the cells, and to ensure reasonable pipetting volumes. One at a time, each compound was first diluted 10-fold in warm (about 37° C.) modified maintenance medium (initial dilution=ID), mixed by vortexing, and the ID was diluted 100-fold into the cell culture (e.g. 5.1 ul into 1 well of a 24-well plate containing 0.5 mL medium). The plate was mixed by carefully swirling and after all wells were treated and returned to the incubator overnight. If desired, separate plates/wells were treated with vehicle-only controls and/or positive controls. If using multi-well plates, controls were included on each plate. After about 18 hours, cells were harvested for further analysis, e.g., ChIP-seq, RNA-seq, ATAC-seq, etc.
# (§5) This protocol is a modified version of the following protocols: MagMAX mirVana Total RNA Isolation Kit User Guide (Applied Biosystems #MAN0011131 Rev B.0), NEBNext Poly(A) mRNA Magnetic Isolation Module (E7490), and NEBNext Ultra Directional RNA Library Prep Kit for Illumina (E7420) (New England Biosystems #E74901).
# (§6) The MagMAX mirVana kit instructions (the section titled “Isolate RNA from cells” on pages 14-17) were used for isolation of total RNA from cells in culture. Two hundred μl of Lysis Binding Mix was used per well of the multiwell plate containing adherent cells (usually a 24-well plate).
# (§7) For mRNA isolation and library prep, the NEBNext Poly(A) mRNA Magnetic Isolation Module and Directional Prep kit was used. RNA isolated from cells above was quantified, and prepared in […] of each sample in 50 μl of nuclease-free water. This protocol may be run in microfuge tubes or in a 96-well plate.
# All pass filter reads from each sample were mapped against the human genome (assembly GRCh38/GCA_000001405.15 “no alt” analysis set merged with hs38d1/GCA_000786075.2) using two pass mapping via STAR version 2.5.3a (alignment parameters alignIntronMin=20; alignIntronMax=1000000; outFilterMismatchNmax=999; outFilterMismatchNoverLmax=0.05; outFilterType=BySJout; outFilterMultimapNmax=20; alignSJoverhangMin=8; alignSJDBoverhangMin=1; alignMatesGapMax=1000000) (Dobin et al., Bioinformatics (2012) 29(1):15-21). Genomic alignments were converted to transcriptome alignments based on reference transcript annotations from the Human GENCODE Gene Set release 24 (Harrow et al., Genome Res. (2012) 22(9): 1760-1774). Using unique and multimapped transcriptomic alignments, gene-level abundance estimates were computed using RSEM version 1.3.0 (Li and Dewey, BMC Bioinformatics (2011) 12:323) in a strand-aware manner, and including confidence interval sampling calculations, to arrive at posterior mean estimates (PME) of abundances (counts and normalized FPKM—fragments per kilobase of exon per million mapped fragments) from the underlying Bayesian model. Standard QC were applied (read integrity, mapping statistics, library complexity, fragment bias) to remove unsatisfactory samples.
# [4] = system: MECP2 mRNA; assay: MECP2 mRNA in primary human hepatocytes (donor 1, donor 2); conditions: average fold change; for Human hep donor-1 MECP2 (Avg_FC) 1 uM / Human hep donor-1 MECP2 (Avg_FC) 10 uM: human hepatocytes donor-1
# Method: as §2, §3, §4
# Samples were amplified using Taqman probes from ThermoFisher.
# [5] = system: MECP2 mRNA; assay: MECP2 mRNA in stellate cells; conditions: average fold change; for Stellate MECP2 (Avg_FC) 1 uM: compound 1 uM; for Stellate MECP2 (Avg_FC) 10 uM: compound 10 uM
# [6] = system: UGT1A1; assay: RNA-seq of UGT1A1 expression in compound-treated primary human hepatocytes
# Method: as §2, §3, §4, §5, §6, §7
# Standard QC were applied (read integrity, mapping statistics, library complexity, fragment bias) to remove unsatisfactory samples. […] Log 2 fold change and significance values were computed using PME count data (with replicates explicitly modeled versus pan-experiment controls), median ratio normalized, using maximum likelihood estimation rather than maximum a posteriori, and disabling the use of Cook's distance cutoff when determining acceptable adjusted p-values. […] RNA-seq signals were also normalized by read depth and visualized using the UCSC browser.
# To identify small molecules that modulate target gene expression, primary human hepatocytes were prepared as a monoculture, and at least one small molecule compound was applied to the cells.
# RNA-seq was performed to determine the effects of the compounds on the expression of the target genes in hepatocytes. Fold change was calculated by dividing the level of expression in the cell system that had been perturbed by the level of expression in an unperturbed system. Changes in expression having a p-value ≤0.05 were considered significant.
# Significance was defined as an FPKM ≥1, a log 2(fold change) ≥0.5, and a q-value of ≤0.05 for all targets except for CPOX.
Molecule,JAG1 Fold Change (Log2) [1] [Log2],Significant modulation of JAG1 (in words) [1],NOTCH2 Fold Change (Log2) [2] [Log2],Human hep donor-1 MECP2 (Avg_FC) 1 uM ([4]; compound 1 uM),Human hep donor-1 MECP2 (Avg_FC) 10 uM ([4]; compound 10 uM),Stellate MECP2 (Avg_FC) 1 uM [5],Stellate MECP2 (Avg_FC) 10 uM [5],other results
Cc1cc(-c2nc(-c3ccc(OC(F)(F)F)cc3)no2)nn1Cc1ccnc(N2CCN(C3CC3)CC2)c1 [BAY 87-2243],0.61,significantly modulate only JAG1,0,,,,,
Cn1cc(C2=C(c3cn(C4CCN(Cc5ccccn5)CC4)c4ccccc34)C(=O)NC2=O)c2ccccc21 [Enzastaurin],1.03,significantly modulate only JAG1,0,,,,,ANGPTL3-LINEAR FOLD CHANGE [3]: 0.2176
c1cc(-c2cnn3cc(-c4ccc(N5CCNCC5)cc4)cnc23)c2cccnc2c1 [LDN-212854],1.47,significantly modulate only JAG1,0,,,,,
O=C1NC(=O)C(c2cnc3ccccn23)=C1c1cn2c3c(cc(F)cc13)CN(C(=O)N1CCCCC1)CC2 [LY2090314],,,,2.43,1.94,2.65,2.20,ANGPTL3-LINEAR FOLD CHANGE [3]: 0.1895
"Cc1ccc(F)c(NC(=O)Nc2ccc(-c3cccc4[nH]nc(N)c34)cc2)c1 [Linifanib (ABT-869), Linifanib]",,,,1.78,2.01,2.50,3.17,
O=C(O)[C@]1(Cc2cccc(Nc3nccs3)n2)CC[C@@H](Oc2cccc(Cl)c2F)CC1 [MK-5108 (VX-689)],,,,2.42,2.35,2.17,2.01,
Cc1ccc(C(=O)Nc2ccc(Oc3cc4cnn(C)c4cc3-c3cn[nH]c3)c(F)c2)c(=O)n1-c1ccc(F)cc1 [Merestinib],0.76,significantly modulate both JAG1 and NOTCH2,0.62,,,,,Significant modulation of NOTCH2 (in words) ([2]; summary of Table 6): significantly modulate both JAG1 and NOTCH2; UGT1A1 Fold Change (Log2) [6]: 0.76 Log2
[H]/N=C(/N)N/C(=N/[H])NCCc1ccccc1 [Phenformin],1.14,significantly modulate only JAG1,0,,,,,
"COc1ccc(Cl)c(Nc2nc3ccccc3nc2NS(=O)(=O)c2cccc(NC(=O)C(C)(C)N)c2)c1 [Pilaralisib (XL147), Pilaralisib]",,,,1.95,1.75,2.28,2.21,ANGPTL3-LINEAR FOLD CHANGE [3]: 0.2606
CCc1ccc(CCOc2ccc(CC3SC(=O)NC3=O)cc2)nc1 (stereo not shown) [Pioglitazone HCl],,,,2.21,2.27,1.94,1.86,
CNC(=O)c1cc(Oc2ccc(NC(=O)Nc3ccc(Cl)c(C(F)(F)F)c3)c(F)c2)ccn1 [Regorafenib (BAY 73-4506)],,,,2.05,1.92,2.31,2.77,
CCC(=O)N1CCN(c2ccc(-n3c(=O)ccc4cnc5ccc(-c6cnc7ccccc7c6)cc5c43)cc2C(F)(F)F)CC1 [torin1],,,,,,1.87,3.65,"Human hep donor-2 MECP2 (Avg_FC) 1 uM ([4]; human hepatocytes donor-2, compound 1 uM): 1.34; Human hep donor-2 MECP2 (Avg_FC) 10 uM ([4]; human hepatocytes donor-2, compound 10 uM): 1.79"
B1,0.63,significantly modulate only JAG1,0,,,,,ANGPTL3-LINEAR FOLD CHANGE [3]: 0.3463
B2,1.03,significantly modulate only JAG1,0,,,,,
